Measured values from US8669291B2, “Phenyl substituted cycloalkylamines as monoamine reuptake inhibitors” (Sunovion Pharmaceuticals Inc., priority 2007, dated 2014).

What was measured:
DA Transporter (DAT) = target: T1, DA Transporter (DAT) (Mus musculus, UniProt Q61327); assay: ex vivo [3H] WIN 35428 binding to DAT sites in mouse brain; conditions: mice, 60 minutes after treatment
T1 construct: Striatal membranes (200 μL; equivalent to 2 mg wet weight of tissue/tube); from tissue; host or cells: striatum of C57BL/6 mice
T1 sequence (Q61327 whole entry): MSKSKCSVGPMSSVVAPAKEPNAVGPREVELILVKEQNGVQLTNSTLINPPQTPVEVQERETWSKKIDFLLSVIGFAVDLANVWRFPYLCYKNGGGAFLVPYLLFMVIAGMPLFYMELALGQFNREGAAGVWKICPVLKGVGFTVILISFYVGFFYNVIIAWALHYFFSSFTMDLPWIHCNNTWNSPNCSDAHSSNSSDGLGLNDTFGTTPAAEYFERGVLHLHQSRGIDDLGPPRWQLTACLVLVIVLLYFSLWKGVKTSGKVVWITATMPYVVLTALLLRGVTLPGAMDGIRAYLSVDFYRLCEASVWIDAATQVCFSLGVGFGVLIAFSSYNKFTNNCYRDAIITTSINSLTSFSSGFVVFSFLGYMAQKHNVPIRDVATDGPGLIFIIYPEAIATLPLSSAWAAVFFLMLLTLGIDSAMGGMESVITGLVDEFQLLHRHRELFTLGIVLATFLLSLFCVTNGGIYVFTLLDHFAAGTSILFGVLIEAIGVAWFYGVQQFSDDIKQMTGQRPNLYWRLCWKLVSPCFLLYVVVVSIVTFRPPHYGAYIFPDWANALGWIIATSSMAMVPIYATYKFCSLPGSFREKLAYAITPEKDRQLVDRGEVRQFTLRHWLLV
Description: (§1) Receptor occupancy of central noradrenaline (NA), 5-HT and dopamine (DA) transporter sites following peripheral administration of compounds was determined using [^3H] nisoxetine, [^3H] citalopram and [^3H] WIN 35428 binding, respectively. Liquid scintillation counting was used to quantify the radioactivity.
(§2) C57BL/6 mice (25-30 g) were dosed orally with either vehicle or compound at 4 dose levels. Mice were sacrificed 60 minutes after treatment. Whole brains were removed and cortex and striata dissected out before being frozen on dry ice. The brain tissue was stored at −20° C. until the day of the assay. The cortex from each hemisphere was frozen separately. One was used to determine occupancy of NA transporter sites and the other occupancy of 5-HT transporter sites. Striatum was used to determine occupancy of DA transporter sites.
(§3) Frontal cortex from each hemisphere or striata was homogenized individually in ice-cold assay buffer using a tight fitting glass/Teflon homogenizer and used immediately in the binding assay.
Striatal membranes (200 μL; equivalent to 2 mg wet weight of tissue/tube) were incubated with 25 μL of [^3H] WIN 35428 at a single concentration of 24 nM and either 25 μL of buffer (total binding) or 25 μL of GBR12935 (1 μM; non-specific binding) for 2 h at 4° C. For each animal, two tubes were used for the determination of total binding and two tubes for the determination of non-specific binding.
(§4) Membrane bound radioactivity was recovered by filtration under vacuum through Skatron 11731 filters, presoaked in 0.5% PEI, using a Skatron cell harvester. Filters were rapidly washed with ice-cold phosphate buffer and radioactivity (dpm) was determined by liquid scintillation counting (1 mL Packard MV Gold scintillator).
(§5) A value for specific binding (dpm) was generated by the subtraction of mean non-specific binding (dpm) from mean total binding (dpm) for each animal. Data are presented as mean specific binding (dpm) and as a percentage of the vehicle-treated control taken as 100%.

5-HT Transporter (SERT) = target: T2, 5-HT Transporter (SERT) (Mus musculus, UniProt Q60857); assay: ex vivo [3H] citalopram binding to SERT sites in mouse brain; conditions: mice, 60 minutes after treatment
T2 construct: Cortical membranes (400 μL; equivalent to 1.25 mg wet weight of tissue/tube); from tissue; host or cells: frontal cortex of C57BL/6 mice
T2 sequence (Q60857 whole entry): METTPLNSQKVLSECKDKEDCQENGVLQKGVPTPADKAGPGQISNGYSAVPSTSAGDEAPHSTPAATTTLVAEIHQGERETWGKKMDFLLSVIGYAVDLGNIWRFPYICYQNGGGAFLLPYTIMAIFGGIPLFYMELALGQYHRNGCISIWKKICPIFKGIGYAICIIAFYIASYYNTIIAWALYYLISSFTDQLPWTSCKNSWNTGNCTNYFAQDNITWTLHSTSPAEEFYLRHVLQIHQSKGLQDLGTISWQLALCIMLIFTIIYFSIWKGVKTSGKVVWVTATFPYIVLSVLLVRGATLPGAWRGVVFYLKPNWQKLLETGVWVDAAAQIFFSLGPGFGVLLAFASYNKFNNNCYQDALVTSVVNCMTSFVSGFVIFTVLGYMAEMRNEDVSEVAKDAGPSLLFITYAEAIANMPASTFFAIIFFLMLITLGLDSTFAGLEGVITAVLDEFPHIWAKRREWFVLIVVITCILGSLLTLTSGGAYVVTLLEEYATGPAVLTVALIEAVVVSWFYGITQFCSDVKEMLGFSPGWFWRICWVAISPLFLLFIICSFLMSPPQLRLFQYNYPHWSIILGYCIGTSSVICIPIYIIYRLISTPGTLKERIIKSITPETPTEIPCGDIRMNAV
Description: as §1, §2, §3
Cortical membranes (400 μL; equivalent to 1.25 mg wet weight of tissue/tube) were incubated with 50 μl of [^3H] citalopram at a single concentration of 1.3 nM and either 50 μl of buffer (total binding) or 50 μl of paroxetine (0.5 μM; non-specific binding) for 1 h at 27° C. For each animal, three tubes were used for the determination of total binding and three tubes were used for the determination of non-specific binding.
as §4, §5

CN(C)C[C@@H]1CCCC[C@@]1(O)c1ccc(Cl)c(Cl)c1 (single isomer, unassigned) [Compound 2, cis-1-(3,4-dichlorophenyl)-2-((dimethylamino)methyl)cyclohexanol]
% Transporter Occupancy, DAT (DA Transporter (DAT); 1 mg/kg PO): 15%
% Transporter Occupancy, DAT (DA Transporter (DAT); 3 mg/kg PO): 50%
% Transporter Occupancy, DAT (DA Transporter (DAT); 10 mg/kg PO): 79%
% Transporter Occupancy, DAT (DA Transporter (DAT); 30 mg/kg PO): 90%
% Transporter Occupancy, SERT (5-HT Transporter (SERT); 1 mg/kg PO): 11%
% Transporter Occupancy, SERT (5-HT Transporter (SERT); 3 mg/kg PO): −1%
% Transporter Occupancy, SERT (5-HT Transporter (SERT); 10 mg/kg PO): 6%
% Transporter Occupancy, SERT (5-HT Transporter (SERT); 30 mg/kg PO): 5%
